test system: patients having an ocular pain symptom; experiment: Number of eye blinks after intraocular administration of PGE2 synthesis inhibitors to eye pain patients; type: in vivo, human; settings: blinks for 5 min
Procedure: PGE2 synthesis inhibitors were administered intraocularly to patients having an ocular pain symptom, and whether the number of eye blinks of the patient group was reduced compared to that of a control group was examined. The PGE2 synthesis inhibitors used were 15-deoxy-Δ^12,14-PGJ2, exisulind, NS-398, leukotriene C4, mk-886, analogues of MK-886, MF63, thienopyrrole, naphthalene disulphonamide, resveratrol, and γ-hydroxybutenolide.
As a result, it was shown that, when the PGE synthesis inhibitors were administered intraocularly, they reduced ocular discomfort to thereby reduce the number of eye blinks (Table 2).

Going from CCCCC/C=C/C=C1/C(=O)C=C[C@@H]1C/C=C\CCCC(=O)O [15-deoxy-Δ^12,14-PGJ2] to CCCCC/C=C\C\C=C/C=C/C=C/[C@@H](SC[C@H](NC(=O)CC[C@H](N)C(=O)O)C(=O)NCC(=O)O)[C@@H](O)CCCC(=O)O [Leukotriene C4], the “Number of eye blinks of treated group (n = 10) for 5 min” value (shortened to “Number of eye blinks … for 5 min”) rises from 11 to 17.

Compared with CC1=C(CC(=O)O)c2cc(F)ccc2/C1=C\c1ccc(S(C)(=O)=O)cc1 [Exisulind], Oc1ccc(C=Cc2cc(O)cc(O)c2)cc1 [Resveratrol] is higher in “Number of eye blinks … for 5 min” value: 14 for the first, 17 for the second.

CS(=O)(=O)Nc1ccc([N+](=O)[O-])cc1OC1CCCCC1 [NS-398] and c1cc2sccc2[nH]1 [Thienopyrrole] are the same in “Number of eye blinks … for 5 min” value: 13 for the first, 13 for the second.

CC(C)c1ccc2c(c1)c(SC(C)(C)C)c(CC(C)(C)C(=O)O)n2Cc1ccc(Cl)cc1 [mk-886] was tested, and the “Number of eye blinks … for 5 min” value was 15.

test system: patients having an ocular pain symptom; experiment: Number of eye blinks after intraocular administration of selective COX2 inhibitors to ocular pain patients; type: in vivo, human; settings: control group = Diclofenac

Compared with Cc1cnc(NC(=O)C2=C(O)c3ccccc3S(=O)(=O)N2C)s1 [Meloxicam], CS(=O)(=O)Nc1ccc([N+](=O)[O-])cc1Oc1ccccc1 [Nimesulud] is lower in “Number of eye blinks of treated group (n = 3)” value: 20 for the first, 16 for the second.

CCN1CC/C(=C\c2cc(C(C)(C)C)c(O)c(C(C)(C)C)c2)S1(=O)=O [S-2474, 3,5-di-tert-buryl-4-hydroxybenzylidene] was tested, and the “Number of eye blinks of treated group (n = 3)” value was 15.

Source: patent US9629855B2, “Pharmaceutical composition for treatment of eye pain, containing PGE2 synthesis inhibitor” (INDUSTRY-ACADEMIC COOPERATION FOUNDATION, YONSEI UNIVERSITY, priority 2011, dated 2017)
